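The compound was tested at five concentrations on cells cultured in 96-well plates, with a 48-hour exposure period. GI50 = concentration required for 50% inhibition of growth.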 Calls of active or inactive are those of the source. Cut-off read from the data, not from the text of the source: active = GI50 up to about 1.1 µM and inactive = higher.
Assays:
Test in all cases: inhibition of tumour cell growth, NCI panel, 48 h
[1] = test system: A549
[2] = test system: COLO 205
[3] = test system: HT-29
[4] = test system: IGROV-1
[5] = test system: M14
[6] = test system: SF-295
[7] = test system: SK-MEL-28
[8] = test system: SK-MEL-5
[9] = test system: SK-OV-3
[10] = test system: SN12C
[11] = test system: SNB-19
[12] = test system: UACC-62
[13] = test system: HCT-15
[14] = test system: HOP-92
[15] = test system: Malme-3M

Row | Compound | GI50 [1] | GI50 [2] | GI50 [3] | GI50 [4] | GI50 [5] | GI50 [6] | GI50 [7] | GI50 [8] | GI50 [9] | GI50 [10] | GI50 [11] | GI50 [12] | GI50 [13] | GI50 [14] | GI50 [15]
1 | CCOC(=O)c1nc(-c2ccccc2)oc1OCC | > 100 µM (inactive) | > 100 µM (inactive) | > 100 µM (inactive) | > 100 µM (inactive) | > 100 µM (inactive) | > 100 µM (inactive) | > 100 µM (inactive) | > 100 µM (inactive) | > 100 µM (inactive) | > 100 µM (inactive) | > 100 µM (inactive) | > 100 µM (inactive) | – | – | –
2 | CCOC(=O)NC(=O)c1cn(CC(=O)NCC(=O)NCC(=O)NCCCN2CCN(CCCNC(=O)CNC(=O)CNC(=O)Cn3cc(C(=O)NC(=O)OCC)c(=O)[nH]c3=O)CC2)c(=O)[nH]c1=O | > 100 µM (inactive) | > 100 µM (inactive) | > 100 µM (inactive) | > 100 µM (inactive) | > 100 µM (inactive) | > 100 µM (inactive) | > 100 µM (inactive) | > 100 µM (inactive) | > 100 µM (inactive) | > 100 µM (inactive) | > 100 µM (inactive) | > 100 µM (inactive) | > 100 µM | > 100 µM (inactive) | > 100 µM (inactive)
3 | O=C1CCC2(O)c3ccccc3C2Cc2ccccc21 (stereo not drawn) | – | > 100 µM (inactive) | > 100 µM (inactive) | > 100 µM (inactive) | – | > 100 µM (inactive) | > 100 µM (inactive) | – | – | > 100 µM (inactive) | > 100 µM (inactive) | > 100 µM (inactive) | – | 70.1 µM (inactive) | > 100 µM (inactive)
4 | Cc1cc(O)nc(NNC(C#N)c2c(O)ccc3ccccc23)n1 (stereo not drawn) | 2.9 µM (inactive) | 22.4 µM (inactive) | 17.3 µM (inactive) | 3.4 µM (inactive) | 2.51 µM (inactive) | 4.74 µM (inactive) | 5.18 µM (inactive) | 2.99 µM (inactive) | 7.08 µM (inactive) | 3.18 µM (inactive) | – | 2.87 µM (inactive) | 1.82 µM | 19.1 µM (inactive) | 7.55 µM (inactive)
5 | COc1ccc2c(=O)c([Se]c3coc4cc(OC)ccc4c3=O)coc2c1 | 32.6 µM (inactive) | > 100 µM (inactive) | > 100 µM (inactive) | 34.4 µM (inactive) | 18.3 µM (inactive) | 24.7 µM (inactive) | 52.1 µM (inactive) | > 100 µM (inactive) | > 100 µM (inactive) | 54.5 µM (inactive) | > 100 µM (inactive) | > 100 µM (inactive) | 50.9 µM | > 100 µM (inactive) | 34.3 µM (inactive)
6 | N/N=C(/C(=O)Nc1cccc(Cl)c1)C(C(=O)c1ccc(O)cc1O)C1OC(=O)c2ccccc21 (stereo not drawn) | > 100 µM (inactive) | > 100 µM (inactive) | > 100 µM (inactive) | > 100 µM (inactive) | > 100 µM (inactive) | 85.9 µM (inactive) | > 100 µM (inactive) | > 100 µM (inactive) | > 100 µM (inactive) | > 100 µM (inactive) | 68.2 µM (inactive) | 52.8 µM (inactive) | > 100 µM | – | > 100 µM (inactive)
7 | O=C(/C=C\c1cccc2ccccc12)c1ccc(Br)cc1 | > 100 µM (inactive) | 31.1 µM (inactive) | 18.2 µM (inactive) | 23.6 µM (inactive) | 18.1 µM (inactive) | 22.4 µM (inactive) | 12.1 µM (inactive) | 19.7 µM (inactive) | 30.7 µM (inactive) | 34.8 µM (inactive) | 25.7 µM (inactive) | 15.2 µM (inactive) | 17.7 µM | 36.5 µM (inactive) | 31.3 µM (inactive)
8 | O=C(Nc1ccc(Sc2ccc(/N=N/c3c(O)c(S(=O)(=O)O)cc4cc(S(=O)(=O)O)ccc34)cc2)cc1)c1ccc(/N=N/c2c(O)ccc3c(S(=O)(=O)O)cc(S(=O)(=O)O)cc23)cc1 | 28.4 µM (inactive) | 15.8 µM (inactive) | 42.1 µM (inactive) | 32.7 µM (inactive) | 21.7 µM (inactive) | 62.7 µM (inactive) | 48.1 µM (inactive) | 7.5 µM (inactive) | > 100 µM (inactive) | 42.2 µM (inactive) | 41.1 µM (inactive) | 16.9 µM (inactive) | 27.5 µM | 78 µM (inactive) | 24.9 µM (inactive)
9 | CCOC(=O)[C@H]1Nc2ccc([N+](=O)[O-])cc2C2c3ccccc3CC21 (stereo partly drawn) | 25.9 µM (inactive) | 30.9 µM (inactive) | 16 µM (inactive) | 28 µM (inactive) | 15.2 µM (inactive) | 11.2 µM (inactive) | 12.1 µM (inactive) | 13.1 µM (inactive) | – | 15.5 µM (inactive) | 28.4 µM (inactive) | 12.2 µM (inactive) | 15.3 µM | – | 19 µM (inactive)
10 | CCCCCCCCCCCCC(CC)CCCCC(=O)O (stereo not drawn) | > 100 µM (inactive) | > 58.3 µM (inactive) | > 65.6 µM (inactive) | > 100 µM (inactive) | > 100 µM (inactive) | > 100 µM (inactive) | > 100 µM (inactive) | > 100 µM (inactive) | > 100 µM (inactive) | > 83 µM (inactive) | > 100 µM (inactive) | > 100 µM (inactive) | > 100 µM | > 73.3 µM (inactive) | > 100 µM (inactive)
11 | CCCCOP1(=O)CC(C)=C(Cl)C(C)(OC)C1 (stereo not drawn) | > 100 µM (inactive) | > 100 µM (inactive) | > 100 µM (inactive) | > 100 µM (inactive) | > 100 µM (inactive) | > 100 µM (inactive) | > 100 µM (inactive) | > 100 µM (inactive) | > 100 µM (inactive) | > 100 µM (inactive) | > 100 µM (inactive) | > 100 µM (inactive) | > 100 µM | 43.7 µM (inactive) | > 100 µM (inactive)
12 | O=C1CCN2CCC(=O)c3c2c(cc2ccccc32)N1 | > 100 µM (inactive) | > 100 µM (inactive) | > 100 µM (inactive) | > 100 µM (inactive) | > 100 µM (inactive) | > 100 µM (inactive) | – | > 100 µM (inactive) | > 100 µM (inactive) | > 100 µM (inactive) | > 100 µM (inactive) | > 100 µM (inactive) | > 100 µM | – | > 100 µM (inactive)
13 | COC(=O)C1CCC(C)CC1=O (stereo not drawn) | > 100 µM (inactive) | > 100 µM (inactive) | > 100 µM (inactive) | > 100 µM (inactive) | > 100 µM (inactive) | > 100 µM (inactive) | > 100 µM (inactive) | > 100 µM (inactive) | > 100 µM (inactive) | > 100 µM (inactive) | > 100 µM (inactive) | > 100 µM (inactive) | > 100 µM | > 100 µM (inactive) | > 100 µM (inactive)
14 | COc1cccc(NC(=O)CSc2nnc(Cc3ccccc3)o2)c1 | > 100 µM (inactive) | > 100 µM (inactive) | > 100 µM (inactive) | > 100 µM (inactive) | > 100 µM (inactive) | > 100 µM (inactive) | > 100 µM (inactive) | 57 µM (inactive) | > 100 µM (inactive) | > 100 µM (inactive) | > 100 µM (inactive) | > 100 µM (inactive) | > 100 µM | – | > 100 µM (inactive)
15 | CC1=C(SC#N)S(=O)(=O)N(c2ccccc2)C(C)=C1SC#N | 40.7 µM (inactive) | – | > 100 µM (inactive) | 6.56 µM (inactive) | > 10 µM (inactive) | 22.6 µM (inactive) | 61.9 µM (inactive) | 42 µM (inactive) | 38.2 µM (inactive) | 56.6 µM (inactive) | 25.1 µM (inactive) | 30.1 µM (inactive) | 46 µM | 3.63 µM (inactive) | > 100 µM (inactive)
16 | COc1cc2c3c(c1OC)-c1ccccc1C(C(OC(C)=O)c1ccccc1)C3N(C)CC2 (stereo not drawn) | 32.8 µM (inactive) | 30.3 µM (inactive) | 38.3 µM (inactive) | > 100 µM (inactive) | 51.2 µM (inactive) | > 100 µM (inactive) | 31.8 µM (inactive) | 18.1 µM (inactive) | > 100 µM (inactive) | 34.7 µM (inactive) | 48.4 µM (inactive) | 34 µM (inactive) | 27.7 µM | 21 µM (inactive) | 33.2 µM (inactive)
17 | CCOC(=O)CC(NC(=O)c1nc[nH]c1[N+](=O)[O-])C(=O)OCC (stereo not drawn) | 60.1 µM (inactive) | 49.2 µM (inactive) | 40.4 µM (inactive) | 40.5 µM (inactive) | 67.8 µM (inactive) | 33.5 µM (inactive) | > 100 µM (inactive) | 56 µM (inactive) | > 100 µM (inactive) | 42.5 µM (inactive) | 56.6 µM (inactive) | 66.1 µM (inactive) | 78.5 µM | – | > 100 µM (inactive)
18 | COc1cc2c(c(OC)c1OC)-c1ccc(SC)c(=O)cc1[C@@H](NCc1cccc(C#N)c1)CC2 | 0.0345 µM (active) | 0.0202 µM (active) | 0.0154 µM (active) | 0.057 µM (active) | 0.0188 µM (active) | 0.0207 µM (active) | 0.0221 µM (active) | 0.00693 µM (active) | 0.0115 µM (active) | 0.0313 µM (active) | 0.045 µM (active) | 0.00668 µM (active) | 0.0239 µM | 0.0401 µM (active) | 0.0232 µM (active)
19 | O=C(NC12CC3CC(CC(C3)C1)C2)C(=O)c1c[nH]c2ccccc12 | 16.3 µM (inactive) | 18.7 µM (inactive) | 2.83 µM (inactive) | 15.8 µM (inactive) | 14 µM (inactive) | 10.2 µM (inactive) | 16.3 µM (inactive) | 15.4 µM (inactive) | 16 µM (inactive) | 16.5 µM (inactive) | 17.9 µM (inactive) | 13.4 µM (inactive) | 12.1 µM | 15.1 µM (inactive) | 15 µM (inactive)
